Experimental data published in PubChem BioAssay AID248 (DTP/NCI, 2004).
Where “and” joins values, the source holds several entries; their conditions need not be identical. Equal entries are not always repeated. Inconclusive results and toxic doses are left out. Cut-off read from the data, not from the text of the source: active = T/C of 150% or more; inactive = T/C below 125%.

Test system: L1210 leukemia ip in BDF1 mice, survival T/C
Assay: NCI In Vivo Anticancer Drug Screen. Data for tumor model L1210 Leukemia (intraperitoneal) in B6D2F1 (BDF1) mice
Settings: endpoint: mean survival time, higher = longer survival
In short: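 Each compound was tested against a transplantable tumor grown in mice. The endpoint was survival, with treated animals benchmarked against vehicle controls as a simple ratio.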

[1] = dose: 100.0 mg/kg/injection, schedule: Q01DX001 (ip), vehicle: saline
[2] = dose: 200.0 mg/kg/injection, schedule: Q01DX001 (ip), vehicle: saline
[3] = dose: 400.0 mg/kg/injection, schedule: Q01DX001 (ip), vehicle: saline
[4] = dose: 75.0 mg/kg/injection, schedule: Q01DX001 (ip), vehicle: Klucel (hydroxypropylcellulose) (HPC)
[5] = dose: 100.0 mg/kg/injection, schedule: Q04DX002 (ip), vehicle: Klucel (hydroxypropylcellulose) (HPC)
[6] = dose: 200.0 mg/kg/injection, schedule: Q04DX002 (ip), vehicle: Klucel (hydroxypropylcellulose) (HPC)
[7] = dose: 400.0 mg/kg/injection, schedule: Q04DX002 (ip), vehicle: Klucel (hydroxypropylcellulose) (HPC)
[8] = dose: 25.0 mg/kg/injection, schedule: Q01DX009 (ip), vehicle: saline with Tween-80
[9] = dose: 50.0 mg/kg/injection, schedule: Q01DX009 (ip), vehicle: saline with Tween-80
[10] = dose: 50.0 mg/kg/injection, schedule: Q01DX001 (ip), vehicle: carboxymethylcellulose (CMC)
[11] = dose: 100.0 mg/kg/injection, schedule: Q04DX003 (ip), vehicle: carboxymethylcellulose (CMC)

Measured: T/C

CCCCOCCCNCC(=O)Nc1ccc(S(=O)(=O)c2ccc(NC(=O)CNCCCOCCCC)cc2)cc1
inactive: [1] 89 % of control | [2] 97 % of control | [3] 108 % of control

C/C=C(\C)C(N)=Nc1ccc(Cl)c(Cl)c1
inactive: dose: 55.0 mg/kg/injection, schedule: Q01DX Z (ip), vehicle: methylcellulose (MC) 106 % of control | dose: 83.0 mg/kg/injection, schedule: Q01DX Z (ip), vehicle: methylcellulose (MC) 102 % of control | dose: 125.0 mg/kg/injection, schedule: Q01DX Z (ip), vehicle: methylcellulose (MC) 102 % of control

CC1(C)N=C(N)N=C(N)N1c1ccc(CC(C(=O)Nc2ccc(S(=O)(=O)F)cc2)c2ccccc2)cc1 (stereo not given)
inactive: [4] 97 % of control | dose: 150.0 mg/kg/injection, schedule: Q01DX001 (ip), vehicle: Klucel (hydroxypropylcellulose) (HPC) 94 % of control | dose: 300.0 mg/kg/injection, schedule: Q01DX001 (ip), vehicle: Klucel (hydroxypropylcellulose) (HPC) 90 % of control

OCCCCCCCCCCC[n+]1ccccc1Cc1ccccc1
inactive: [4] 92 % of control

NC(=S)N/N=C/c1ccc([N+](=O)[O-])cc1
inactive: dose: 12.5 mg/kg/injection, schedule: Q01DX001 (ip), vehicle: saline with Tween-80 95 % of control | dose: 25.0 mg/kg/injection, schedule: Q01DX001 (ip), vehicle: saline with Tween-80 95 % of control | dose: 50.0 mg/kg/injection, schedule: Q01DX001 (ip), vehicle: saline with Tween-80 91 % of control

CCCCOC(=O)c1ccc(NC(=O)Nc2cc([N+](=O)[O-])ccc2F)cc1
inactive: [5] 93 % of control | [6] 104 % of control | [7] 93 % of control

CCN1CCN(CC)C1(Br)C1(Br)N(CC)CCN1CC
inactive: dose: 75.0 mg/kg/injection, schedule: Q04DX002 (ip), vehicle: saline with Tween-80 91 % of control | dose: 150.0 mg/kg/injection, schedule: Q04DX002 (ip), vehicle: saline with Tween-80 91 % of control | dose: 300.0 mg/kg/injection, schedule: Q04DX002 (ip), vehicle: saline with Tween-80 98 % of control

CCCCC(/C=N\NC(=O)c1ccc[n+](C)c1)CC (stereo not given)
inactive: dose: 50.0 mg/kg/injection, schedule: Q01DX009 (ip), vehicle: saline 103 % of control | dose: 100.0 mg/kg/injection, schedule: Q01DX009 (ip), vehicle: saline 100 % of control

O=C1c2ccccc2C(=O)N1CCOCCOCCN1C(=O)c2ccccc2C1=O
inactive: [8] 108 % of control | [9] 96 % of control and 92 % of control | dose: 100.0 mg/kg/injection, schedule: Q01DX009 (ip), vehicle: saline with Tween-80 88 % of control and 92 % of control | [5] 98 % of control | dose: 200.0 mg/kg/injection, schedule: Q01DX009 (ip), vehicle: saline with Tween-80 98 % of control | [6] 98 % of control | [7] 98 % of control

CCOP(=O)(C(O)C(Cl)(Cl)Cl)C(O)C(Cl)(Cl)Cl (stereo not given)
inactive: dose: 75.0 mg/kg/injection, schedule: Q04DX003 (ip), vehicle: saline with Tween-80 95 % of control | dose: 150.0 mg/kg/injection, schedule: Q04DX003 (ip), vehicle: saline with Tween-80 97 % of control

CC(=O)NC1C(OC(C)=O)OC(COC(c2ccccc2)(c2ccccc2)c2ccccc2)C(O)C1OC(C)=O (stereo not given)
inactive: dose: 6.25 mg/kg/injection, schedule: Q01DX009 (ip), vehicle: saline with Tween-80 96 % of control | dose: 12.5 mg/kg/injection, schedule: Q01DX009 (ip), vehicle: saline with Tween-80 93 % of control | [8] 93 % of control | dose: 25.0 mg/kg/injection, schedule: Q04DX003 (ip), vehicle: saline with Tween-80 109 % of control | [9] 93 % of control | dose: 50.0 mg/kg/injection, schedule: Q04DX003 (ip), vehicle: saline with Tween-80 121 % of control | dose: 200.0 mg/kg/injection, schedule: Q04DX003 (ip), vehicle: saline with Tween-80 91 % of control | dose: 400.0 mg/kg/injection, schedule: Q04DX003 (ip), vehicle: saline with Tween-80 88 % of control

O=S(=O)(F)c1ccc(C[P+](c2ccccc2)(c2ccccc2)c2ccccc2)cc1Cl
inactive: dose: 12.5 mg/kg/injection, schedule: Q01DX001 (ip), vehicle: carboxymethylcellulose (CMC) 103 % of control | dose: 12.5 mg/kg/injection, schedule: Q01DX009 (ip), vehicle: carboxymethylcellulose (CMC) 113 % of control and 117 % of control | dose: 12.5 mg/kg/injection, schedule: Q04DX002 (ip), vehicle: carboxymethylcellulose (CMC) 97 % of control and 100 % of control | dose: 25.0 mg/kg/injection, schedule: Q01DX001 (ip), vehicle: carboxymethylcellulose (CMC) 99 % of control | dose: 25.0 mg/kg/injection, schedule: Q01DX009 (ip), vehicle: carboxymethylcellulose (CMC) 97 % of control and 98 % of control | dose: 25.0 mg/kg/injection, schedule: Q04DX002 (ip), vehicle: carboxymethylcellulose (CMC) 100 % of control and 103 % of control | dose: 25.0 mg/kg/injection, schedule: Q04DX003 (ip), vehicle: carboxymethylcellulose (CMC) 96 % of control and 102 % of control | [10] 99 % of control and 101 % of control and 107 % of control | dose: 50.0 mg/kg/injection, schedule: Q01DX009 (ip), vehicle: carboxymethylcellulose (CMC) 98 % of control and 103 % of control | dose: 50.0 mg/kg/injection, schedule: Q04DX002 (ip), vehicle: carboxymethylcellulose (CMC) 100 % of control and 110 % of control | dose: 50.0 mg/kg/injection, schedule: Q04DX003 (ip), vehicle: carboxymethylcellulose (CMC) 102 % of control and 105 % of control | dose: 100.0 mg/kg/injection, schedule: Q04DX002 (ip), vehicle: carboxymethylcellulose (CMC) 101 % of control and 91 % of control | [11] 102 % of control and 104 % of control

COc1ccc(NC(=O)OC/C=C/c2ccccc2)c(OC)c1
inactive: dose: 100.0 mg/kg/injection, schedule: Q01DX009 (ip), vehicle: Klucel (hydroxypropylcellulose) (HPC) 90 % of control | dose: 200.0 mg/kg/injection, schedule: Q01DX009 (ip), vehicle: Klucel (hydroxypropylcellulose) (HPC) 87 % of control

CN(C)C(=S)Oc1c(Cl)cc(S(=O)(=O)F)cc1Cl
inactive: dose: 12.5 mg/kg/injection, schedule: Q04DX002 (ip), vehicle: Klucel (hydroxypropylcellulose) (HPC) 98 % of control | dose: 25.0 mg/kg/injection, schedule: Q04DX002 (ip), vehicle: Klucel (hydroxypropylcellulose) (HPC) 105 % of control | dose: 50.0 mg/kg/injection, schedule: Q04DX002 (ip), vehicle: Klucel (hydroxypropylcellulose) (HPC) 109 % of control | [5] 94 % of control | [6] 100 % of control

[S-]c1n[n+](-c2ccccc2)cs1
inactive: [1] 97 % of control | [2] 95 % of control | [3] 92 % of control

C/C=C(/C)C(=O)O[C@H]1CCN2CC=C(COC(=O)[C@@](O)([C@H](C)OC)C(C)(C)O)[C@H]12
inactive: dose: 5.0 mg/kg/injection, schedule: Q01DX001 (ip), vehicle: other 100 % of control | dose: 7.5 mg/kg/injection, schedule: Q04DX003 (ip), vehicle: Klucel (hydroxypropylcellulose) (HPC) 97 % of control | dose: 10.0 mg/kg/injection, schedule: Q01DX001 (ip), vehicle: other 105 % of control | dose: 15.0 mg/kg/injection, schedule: Q04DX003 (ip), vehicle: Klucel (hydroxypropylcellulose) (HPC) 103 % of control | dose: 20.0 mg/kg/injection, schedule: Q01DX001 (ip), vehicle: other 100 % of control | dose: 30.0 mg/kg/injection, schedule: Q04DX003 (ip), vehicle: Klucel (hydroxypropylcellulose) (HPC) 103 % of control | dose: 40.0 mg/kg/injection, schedule: Q01DX001 (ip), vehicle: other 102 % of control | dose: 60.0 mg/kg/injection, schedule: Q04DX003 (ip), vehicle: Klucel (hydroxypropylcellulose) (HPC) 97 % of control | dose: 80.0 mg/kg/injection, schedule: Q01DX001 (ip), vehicle: other 103 % of control

Nc1nc(N)nc(C(c2ccccc2)c2ccccc2)n1
inactive: [5] 103 % of control | [6] 94 % of control | [7] 87 % of control

CCOC(=O)/C(C(=S)NC(=O)c1ccc(Br)cc1)=C(/C)N
inactive: [11] 95 % of control | dose: 200.0 mg/kg/injection, schedule: Q04DX003 (ip), vehicle: carboxymethylcellulose (CMC) 90 % of control | dose: 400.0 mg/kg/injection, schedule: Q04DX003 (ip), vehicle: carboxymethylcellulose (CMC) 98 % of control

Cc1cccc([N+](=O)[O-])c1N
inactive: [10] 109 % of control | dose: 100.0 mg/kg/injection, schedule: Q01DX001 (ip), vehicle: carboxymethylcellulose (CMC) 109 % of control | dose: 200.0 mg/kg/injection, schedule: Q01DX001 (ip), vehicle: carboxymethylcellulose (CMC) 113 % of control | dose: 400.0 mg/kg/injection, schedule: Q01DX001 (ip), vehicle: carboxymethylcellulose (CMC) 115 % of control
